# Source: patent publication US20160106721A1, “HUMAN THERAPEUTIC AGENTS” (Life Plus, LLC, priority 2014, published 2016)
# Experiments:
# [1] = tested on: human lung cancer cells (H358); test: cell death in lung cancer spheroids; type: cell-based; conditions: 24 hour exposure, increasing doses
# Description: (§1) The respective cells were individually cultured in a growth medium prepared using RPMI-1640 medium containing 11.1 mM D-glucose with 10% fetal bovine serum, 10 mM HEPES, 2 mM L-glutamine, 1 mM sodium pyruvate, 0.05 mM 2-mercaptoethanol, and Antibiotic-Antimycotic. These cells were maintained in T75 tissue culture flasks in a humidified incubator at 37° C. and 5% CO2. The media were changed on a third day after cell plating, and the cells were passaged on day 5 by trypsinization.
# (§2) Custom-made micromolds with 100 μm diameter wells were loaded with the cells (U.S. Pat. No. 8,735,154, incorporated by reference herein). The media were changed every day by partial replacement. Cell aggregates were allowed to form in the micromolds for 72 hours and then were transferred to a 100 mm non-treated tissue culture dishes for 3 additional days. The spheroids were passed through 70 μm and 100 μm cell strainers (#3431751 and #43152, Corning, Tewksbury, Mass.) and maintained in HEPES Balanced Salt Solution comprised of: 20 mM HEPES, 114 mM NaCl, 4.7 mM KCl, 1.2 mM KH2PO4, 1.16 mM MgSO4, 2.5 mM CaCl2, 25.5 mM NaHCO3 and 0.2% bovine serum albumin (fatty acid free), pH 7.2.
# The lymphomas treatment methods used were identical to those described in Example 2 relative to the pediatric leukemia cells, whereas the lung cancer treatment method was the same as described in Example 1.
# [2] = tested on: human ovarian cancer cells (A1847); test: cell death in ovarian cancer spheroids; type: cell-based; conditions: 24 hour exposure, increasing doses
# Description: as §1, §2
# (§3) The cells were treated and tested as set forth in Example 1.
# [3] = tested on: human prostate cancer cells (22rv1); test: cell death in prostate cancer spheroids; type: cell-based; conditions: 24 hour exposure, increasing doses
# Description: as §1, §2, §3
# ovarian cancer cells = conditions: low doses of doxorubicin alone (up to 0.158 μM)
# Description: In this test, the synergism of GZ17-6.02 with doxorubicin (a common chemotherapy drug) was tested on ovarian cancer cells. In this test, increasing doses of doxorubicin were administered to ovarian cancer spheroids and cell deaths were measured, as described in Example 1. The protocol involved testing doxorubicin alone at various dosages (FIG. 8, doxorubicin alone—closed circles), with comparative tests using the various dosages of doxorubicin in combination with either 0.2 mg/mL (FIG. 8 open circles) or 0.4 mg/mL (FIG. 8 closed triangles) GZ17-6.02. Additionally, the induced cell death results from use of 0.2 mg/mL GZ17-6.02 alone (FIG. 8, line A) and 0.4 mg/mL GZ17-6.02 alone (FIG. 8, line B) were determined.
Compound,cell death / anticancer effect (cell number) [1],cell death / anticancer effect (cell number) [2],cell death / anticancer effect (cell number) [3],"cell death, doxorubicin alone (ovarian cancer cells)"
COc1cccc(C=O)c1O [O-vanillin],demonstrated anticancer effects,demonstrated anticancer effects,demonstrated anticancer effects,–
COc1cccc2c1C(=O)c1c(O)c3c(c(O)c1C2=O)C[C@@](O)(C(=O)CO)C[C@@H]3O[C@H]1C[C@H](N)[C@H](O)[C@H](C)O1 [doxorubicin],–,–,–,ineffective
COc1ccc2c3c([nH]c2c1)C(C)=NCC3 [harmaline],demonstrated anticancer effects,demonstrated anticancer effects,demonstrated anticancer effects,–
CC1=NCCc2c1[nH]c1cc(O)ccc21.Cl [harmalol hydrochloride],demonstrated anticancer effects,demonstrated anticancer effects,demonstrated anticancer effects,–
Cc1nccc2c1[nH]c1cc(O)ccc12.Cl [harmole hydrochloride],demonstrated anticancer effects,demonstrated anticancer effects,demonstrated anticancer effects,–
COc1ccc(C(=O)O)cc1O [isovanillic acid],demonstrated anticancer effects,demonstrated anticancer effects,demonstrated anticancer effects,–
COc1ccc(CO)cc1O [isovanillyl alcohol],demonstrated anticancer effects,demonstrated anticancer effects,demonstrated anticancer effects,–
COc1ccc2c3c([nH]c2c1)[C@@H](C)NCC3 [tetrahydro-harmine],demonstrated anticancer effects,demonstrated anticancer effects,demonstrated anticancer effects,–
COc1cc(C=O)ccc1O [vanillin],demonstrated anticancer effects,demonstrated anticancer effects,demonstrated anticancer effects,–
